In ChEMBL document CHEMBL4330147, “Adiponectin-Secretion-Promoting Phenylethylchromones from the Agarwood of Aquilaria malaccensis” (J Nat Prod, 2019):
Activity calls are given as the source filed them. The rule behind the calls is not given here.

Legend:
Homo sapiens = species on record: Homo sapiens; assay: Induction of adipogenesis in human bone marrow-derived mesenchymal stem cells assessed as increase in adiponectin production at 30 uM measured on day 5 in presence of IDX by ELISA; assay type: functional
[1] = biological target: T1, Peroxisome proliferator-activated receptor gamma (Homo sapiens, UniProt P37231); assay: (§1) Binding affinity to PPARgamma (unknown origin) by TR-FRET assay
T1 sequence (P37231 whole entry): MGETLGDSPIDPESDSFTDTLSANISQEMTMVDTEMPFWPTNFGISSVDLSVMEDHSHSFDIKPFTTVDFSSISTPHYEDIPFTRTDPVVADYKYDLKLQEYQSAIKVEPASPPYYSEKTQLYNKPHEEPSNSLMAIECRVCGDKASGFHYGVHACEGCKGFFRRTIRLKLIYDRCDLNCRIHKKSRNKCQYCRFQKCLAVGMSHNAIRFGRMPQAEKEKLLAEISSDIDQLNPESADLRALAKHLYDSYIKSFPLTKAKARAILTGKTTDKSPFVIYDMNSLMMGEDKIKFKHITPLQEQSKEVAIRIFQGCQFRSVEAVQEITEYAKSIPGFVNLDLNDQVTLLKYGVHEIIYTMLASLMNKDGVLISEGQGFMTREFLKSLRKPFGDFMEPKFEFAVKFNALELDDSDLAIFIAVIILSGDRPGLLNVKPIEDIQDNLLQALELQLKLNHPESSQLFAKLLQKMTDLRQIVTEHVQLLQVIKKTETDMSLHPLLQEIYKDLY

cells = details: Homo sapiens, 120 h
Description: Induction of adipogenesis in human bone marrow-derived mesenchymal stem cells assessed as increase in adiponectin production measured on day 5 in presence of IDX by ELISA

[2] = biological target: T2, Peroxisome proliferator-activated receptor gamma (Homo sapiens) (UniProt P37231); assay: as §1
T2 sequence (whole entry): T1 sequence (P37231 whole entry)

[3] = biological target: T3, Glucocorticoid receptor (Homo sapiens) (UniProt P04150); assay: Binding affinity to GR (unknown origin) at 30 uM by TR-FRET assay
T3 sequence (whole entry): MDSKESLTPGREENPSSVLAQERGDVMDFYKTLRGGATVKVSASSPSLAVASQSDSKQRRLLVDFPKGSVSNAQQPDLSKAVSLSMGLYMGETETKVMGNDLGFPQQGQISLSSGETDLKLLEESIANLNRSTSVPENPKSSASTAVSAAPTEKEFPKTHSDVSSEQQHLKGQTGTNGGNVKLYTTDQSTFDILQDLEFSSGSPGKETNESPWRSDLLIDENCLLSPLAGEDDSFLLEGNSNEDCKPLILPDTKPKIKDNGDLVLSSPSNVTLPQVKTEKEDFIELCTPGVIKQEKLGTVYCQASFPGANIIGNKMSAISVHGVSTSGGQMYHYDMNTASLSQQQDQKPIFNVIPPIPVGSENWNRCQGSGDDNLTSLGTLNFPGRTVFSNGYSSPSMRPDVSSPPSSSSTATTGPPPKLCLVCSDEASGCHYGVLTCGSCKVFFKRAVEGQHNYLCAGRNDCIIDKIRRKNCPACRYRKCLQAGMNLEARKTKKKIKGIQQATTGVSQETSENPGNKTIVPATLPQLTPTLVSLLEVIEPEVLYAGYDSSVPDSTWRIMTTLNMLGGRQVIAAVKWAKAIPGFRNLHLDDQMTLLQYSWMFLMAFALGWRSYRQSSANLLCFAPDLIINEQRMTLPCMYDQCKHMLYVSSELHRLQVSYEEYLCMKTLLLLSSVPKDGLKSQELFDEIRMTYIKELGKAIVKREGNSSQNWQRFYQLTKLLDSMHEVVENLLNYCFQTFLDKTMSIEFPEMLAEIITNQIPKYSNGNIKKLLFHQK

[4] = biological target: T4, Oxysterols receptor LXR-alpha (Homo sapiens) (UniProt Q13133); assay: Binding affinity to LXRalpha (unknown origin) at 30 uM by TR-FRET assay
T4 sequence (whole entry): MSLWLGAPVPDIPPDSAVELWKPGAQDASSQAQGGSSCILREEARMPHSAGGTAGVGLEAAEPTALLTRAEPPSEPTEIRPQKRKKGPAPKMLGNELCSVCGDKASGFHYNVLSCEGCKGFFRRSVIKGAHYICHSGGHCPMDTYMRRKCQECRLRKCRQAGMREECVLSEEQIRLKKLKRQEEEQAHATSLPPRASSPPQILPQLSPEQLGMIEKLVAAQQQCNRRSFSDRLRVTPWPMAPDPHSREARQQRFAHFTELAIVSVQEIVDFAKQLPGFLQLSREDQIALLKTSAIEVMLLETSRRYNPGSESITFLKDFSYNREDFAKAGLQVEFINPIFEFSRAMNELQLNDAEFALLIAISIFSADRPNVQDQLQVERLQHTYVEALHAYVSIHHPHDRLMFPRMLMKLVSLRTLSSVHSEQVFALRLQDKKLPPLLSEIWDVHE

[5] = biological target: T2, Peroxisome proliferator-activated receptor gamma (Homo sapiens); assay: Inhibition of labeled ligand binding to PPARgamma (unknown origin) at 30 uM by TR-FRET assay relative to control
[6] = biological target: T5, Peroxisome proliferator-activated receptor delta (Homo sapiens) (UniProt Q03181); assay: Binding affinity to PPARdelta (unknown origin) at 30 uM by TR-FRET assay
T5 sequence (whole entry): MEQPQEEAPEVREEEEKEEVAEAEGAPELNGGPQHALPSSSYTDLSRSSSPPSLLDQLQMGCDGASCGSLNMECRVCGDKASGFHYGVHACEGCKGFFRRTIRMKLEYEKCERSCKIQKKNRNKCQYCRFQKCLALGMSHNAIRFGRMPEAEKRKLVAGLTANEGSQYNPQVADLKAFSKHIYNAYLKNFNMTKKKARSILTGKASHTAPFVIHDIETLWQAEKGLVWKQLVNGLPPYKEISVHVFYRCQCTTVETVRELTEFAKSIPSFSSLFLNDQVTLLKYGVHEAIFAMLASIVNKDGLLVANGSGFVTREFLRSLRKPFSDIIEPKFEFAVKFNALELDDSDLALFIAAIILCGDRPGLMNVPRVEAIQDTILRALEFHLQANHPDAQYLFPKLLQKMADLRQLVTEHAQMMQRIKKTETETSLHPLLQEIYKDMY

[7] = biological target: T6, Peroxisome proliferator-activated receptor alpha (Homo sapiens) (UniProt Q07869); assay: Binding affinity to PPARalpha (unknown origin) at 30 uM by TR-FRET assay
T6 sequence (whole entry): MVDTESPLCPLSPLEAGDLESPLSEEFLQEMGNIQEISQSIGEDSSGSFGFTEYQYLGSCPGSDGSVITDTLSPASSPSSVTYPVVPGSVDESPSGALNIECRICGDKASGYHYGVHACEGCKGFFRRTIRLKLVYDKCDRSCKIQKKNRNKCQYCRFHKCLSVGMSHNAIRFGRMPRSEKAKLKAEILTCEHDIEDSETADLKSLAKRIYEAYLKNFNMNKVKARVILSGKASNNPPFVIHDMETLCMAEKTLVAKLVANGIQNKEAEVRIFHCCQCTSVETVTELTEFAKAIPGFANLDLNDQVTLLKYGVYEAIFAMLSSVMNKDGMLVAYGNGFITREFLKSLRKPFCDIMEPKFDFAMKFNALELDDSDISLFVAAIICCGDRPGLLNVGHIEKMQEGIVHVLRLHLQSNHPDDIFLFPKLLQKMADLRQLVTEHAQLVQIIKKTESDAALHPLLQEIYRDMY

[8] = Induction of adipogenesis in human bone marrow-derived mesenchymal stem cells assessed as increase in adiponectin production at 60 uM measured on day 5 in presence of IDX by ELISA relative to pioglitazone; assay type: functional; details: 120 h
[9] = Induction of adipogenesis in human bone marrow-derived mesenchymal stem cells assessed as increase in adiponectin production at 30 uM measured on day 5 in presence of IDX by ELISA relative to control; assay type: functional
[10] = biological target: T2, Peroxisome proliferator-activated receptor gamma (Homo sapiens); assay: Inhibition of labeled ligand binding to PPARgamma (unknown origin) at 60 uM by TR-FRET assay relative to control

Compound	Activity (Homo sapiens)	EC50 (cells) [µM]	other results
O=c1cc(CCc2ccccc2O)oc2ccccc12	inactive		
O=C1C=C(CCc2ccccc2)OC2C1[C@@H]1O[C@@H]1[C@H](O)[C@H]2O (relative stereo)	Active		
O=c1cc(CCc2ccccc2)oc2cccc(O)c12	Active		
COc1ccc(Cl)cc1C(=O)NCCc1ccc(S(=O)(=O)NC(=O)NC2CCCCC2)cc1 [GLYBURIDE]		2.95	Ki [1]: 0.66 µM
COc1ccc2c(=O)cc(CCc3ccccc3)oc2c1	Active	20.3	Ki [1]: 14.9 µM; Activity [2]: Dose-dependent effect; Activity [3]: inactive; Activity [4]: inactive; inhibition [5]: 50.3%; Activity [6]: inactive; Activity [7]: inactive
O=c1cc(CCc2ccccc2)oc2c(O)cccc12	inactive		
COc1ccc2oc(CCc3ccccc3)cc(=O)c2c1O	Active		
O=c1cc(CCc2ccccc2)oc2c(Cl)cc(O)cc12	Active		
O=c1cc(CCc2ccccc2)oc2ccc(O)c(O)c12	Active	> 60	Emax at 60 µM [8]: 48%; fold change (FC) [9]: 1.97; inhibition [10]: 41.1%
